Results taken from ChEMBL document CHEMBL1201862, “PubChem BioAssay data set” (2004).
Calls of active or inactive are those of the source.

How the values were obtained:
Cytochrome P450 3A4 [1] = biological target: T1, Cytochrome P450 3A4 (Homo sapiens, UniProt P08684);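 note: CYP3A4 tested as one member of a cytochrome P450 panel screen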
Cytochrome P450 2C9 [2] = biological target: T2, Cytochrome P450 2C9 (Homo sapiens, UniProt P11712)
[3] = cytotoxicity toward NIH3T3 fibroblasts, dose response, counter-screen, cell-based, ATP luminescence, mouse fibroblasts (AID 2010); format: functional;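 note: cells exposed to compound for about 90 hours before reading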
[4] = Luminescence Cell-Based Dose Retest to Confirm Inhibitors of Cancer Stem Cells. [Related pubchem assays (depositor defined):AID2717, AID2721]; format: functional; details: Homo sapiens
[5] = biological target: T3, Microphthalmia-associated transcription factor (Homo sapiens, UniProt O75030); test: TRPM1 promoter luciferase signal decrease, dose response, MITF inhibitor project, cell-based, SK-MEL-5, cherry-picked, set 3 (AID 493073); format: functional
T3 sequence (O75030 whole entry): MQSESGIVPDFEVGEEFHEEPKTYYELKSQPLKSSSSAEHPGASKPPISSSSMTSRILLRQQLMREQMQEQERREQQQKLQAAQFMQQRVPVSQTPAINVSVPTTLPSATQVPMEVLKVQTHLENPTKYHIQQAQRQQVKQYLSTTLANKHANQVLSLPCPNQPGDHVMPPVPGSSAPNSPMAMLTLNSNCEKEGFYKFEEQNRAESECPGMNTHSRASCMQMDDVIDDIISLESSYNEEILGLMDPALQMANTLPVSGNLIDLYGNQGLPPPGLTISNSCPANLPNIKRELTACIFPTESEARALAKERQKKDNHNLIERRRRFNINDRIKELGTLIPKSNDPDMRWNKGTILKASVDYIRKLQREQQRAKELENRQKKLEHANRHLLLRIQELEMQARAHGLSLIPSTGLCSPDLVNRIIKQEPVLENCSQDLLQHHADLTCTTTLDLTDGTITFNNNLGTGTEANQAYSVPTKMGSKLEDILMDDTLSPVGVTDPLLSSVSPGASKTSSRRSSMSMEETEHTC

INS1 = test: beta cell apoptosis inhibitors, cytokine rescue, dose response, luminescence, retest (AID 449756); format: functional, cell-based; details: Rattus norvegicus;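 note: cell death triggered by IL-1 beta plus TNF-alpha plus IFN-gamma mixture; protective hits raise ATP signal compared with cytokine alone wells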
[6] = inhibitors of intracellular T. cruzi replication, confirmation, NIH3T3 host cells, beta-gal luminescence (AID 2044); format: functional, cell-based;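 note: intracellular parasites grown in NIH/3T3 mouse fibroblasts as host cells; luminescent beta-galactosidase reporter signal from transgenic T. cruzi replicating inside host cells; inhibitors lower the luminescence signal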
Cytochrome P450 2D6 = Cytochrome P450 2D6 (Homo sapiens, UniProt P10635);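 note: CYP2D6 member of a cytochrome P450 panel assay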
Cytochrome P450 2D6, sequence (P10635 whole entry): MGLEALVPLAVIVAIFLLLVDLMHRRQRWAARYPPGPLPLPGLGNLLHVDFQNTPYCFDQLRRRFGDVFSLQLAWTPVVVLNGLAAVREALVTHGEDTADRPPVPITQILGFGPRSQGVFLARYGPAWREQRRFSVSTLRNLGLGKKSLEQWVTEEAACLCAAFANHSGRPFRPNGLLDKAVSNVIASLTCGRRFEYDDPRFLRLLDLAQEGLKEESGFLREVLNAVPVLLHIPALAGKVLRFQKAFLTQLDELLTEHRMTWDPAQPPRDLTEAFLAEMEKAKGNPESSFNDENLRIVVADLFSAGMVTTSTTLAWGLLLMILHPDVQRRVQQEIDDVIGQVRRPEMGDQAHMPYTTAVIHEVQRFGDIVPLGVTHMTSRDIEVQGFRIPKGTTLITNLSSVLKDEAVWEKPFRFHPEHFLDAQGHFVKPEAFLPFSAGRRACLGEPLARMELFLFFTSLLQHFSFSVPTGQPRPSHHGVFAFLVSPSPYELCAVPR

Cytochrome P450 1A2 = biological target: T4, Cytochrome P450 1A2 (Homo sapiens, UniProt P05177);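 note: PubChem cytochrome P450 panel assay, CYP1A2 panel member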
T4 sequence (P05177 whole entry): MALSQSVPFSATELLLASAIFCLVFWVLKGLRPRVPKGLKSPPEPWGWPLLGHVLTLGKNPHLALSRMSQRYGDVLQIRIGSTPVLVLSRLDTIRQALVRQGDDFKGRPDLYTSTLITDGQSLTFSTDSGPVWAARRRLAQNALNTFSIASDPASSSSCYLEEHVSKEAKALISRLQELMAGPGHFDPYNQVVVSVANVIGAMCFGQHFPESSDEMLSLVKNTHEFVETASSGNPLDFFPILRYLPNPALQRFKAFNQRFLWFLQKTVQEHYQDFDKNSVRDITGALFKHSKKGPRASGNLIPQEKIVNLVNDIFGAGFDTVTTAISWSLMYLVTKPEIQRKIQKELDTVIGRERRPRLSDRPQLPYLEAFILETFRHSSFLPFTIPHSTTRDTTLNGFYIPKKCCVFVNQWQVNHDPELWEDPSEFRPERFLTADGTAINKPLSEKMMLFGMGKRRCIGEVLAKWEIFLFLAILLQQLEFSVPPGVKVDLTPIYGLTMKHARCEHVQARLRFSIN

[7] = Luminescence Cell-Based Dose Confirmation HTS to Identify Inhibitors of Platelet Dense Granule Release. [Related pubchem assays: 1663 (Primary HTS), 1678 (Summary of Project)]; format: functional
[8] = biological target: Luciferin 4-monooxygenase (Photinus pyralis, UniProt P08659); test: firefly luciferase enzyme inhibitors, dose response, biochemical, luminescence (AID 1891)
Luciferin 4-monooxygenase, sequence (P08659 whole entry): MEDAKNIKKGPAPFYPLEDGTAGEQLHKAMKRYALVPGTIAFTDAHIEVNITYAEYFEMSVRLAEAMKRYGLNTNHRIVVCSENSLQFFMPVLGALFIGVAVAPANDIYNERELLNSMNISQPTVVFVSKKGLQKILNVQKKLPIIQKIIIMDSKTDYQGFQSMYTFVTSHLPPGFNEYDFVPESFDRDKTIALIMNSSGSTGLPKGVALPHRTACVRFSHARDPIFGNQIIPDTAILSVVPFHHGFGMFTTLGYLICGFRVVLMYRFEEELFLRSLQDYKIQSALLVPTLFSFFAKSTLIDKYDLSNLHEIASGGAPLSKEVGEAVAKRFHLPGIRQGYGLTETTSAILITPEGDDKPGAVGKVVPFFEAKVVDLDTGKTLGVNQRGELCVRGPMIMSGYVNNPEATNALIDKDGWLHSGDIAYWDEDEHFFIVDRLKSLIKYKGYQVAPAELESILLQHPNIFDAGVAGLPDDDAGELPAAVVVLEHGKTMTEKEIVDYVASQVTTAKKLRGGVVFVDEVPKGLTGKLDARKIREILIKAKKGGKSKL

Cytochrome P450 2C19 = Cytochrome P450 2C19 (Homo sapiens, UniProt P33261); test: Cytochrome panel assay with activity outcomes. Panel member name: p450-cyp2c19 Compounds with AC50 equal or less than 10 uM are considered active; format: functional; details: read-out: AC50
Cytochrome P450 2C19, sequence (P33261 whole entry): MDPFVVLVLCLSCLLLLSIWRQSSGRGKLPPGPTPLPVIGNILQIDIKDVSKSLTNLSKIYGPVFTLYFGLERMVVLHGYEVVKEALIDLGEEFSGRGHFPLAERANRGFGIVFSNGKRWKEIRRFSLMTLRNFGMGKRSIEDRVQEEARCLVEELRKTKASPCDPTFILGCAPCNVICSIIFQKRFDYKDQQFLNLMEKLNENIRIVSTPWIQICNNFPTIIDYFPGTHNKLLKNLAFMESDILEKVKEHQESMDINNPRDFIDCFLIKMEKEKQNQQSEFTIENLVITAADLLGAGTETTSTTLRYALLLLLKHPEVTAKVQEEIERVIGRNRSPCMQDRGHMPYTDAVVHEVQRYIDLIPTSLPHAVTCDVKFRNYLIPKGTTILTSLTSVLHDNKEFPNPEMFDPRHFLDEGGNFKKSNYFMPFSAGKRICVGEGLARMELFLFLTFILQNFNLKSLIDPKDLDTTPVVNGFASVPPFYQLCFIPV

Cytochrome P450 3A4 [9] = biological target: T1, Cytochrome P450 3A4; remark: listed apart in the source
[10] = biological target: T5, RNA-binding protein pos-1 (Caenorhabditis elegans, UniProt G5EF15); test: inhibitors of POS-1/mex-3 RNA binding, dose response, biochemical, fluorescence polarization (AID 1964);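 note: purified POS-1 fused to maltose binding protein made in E. coli; potency of compounds blocking POS-1 binding to fluorescent RNA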
T5 sequence (G5EF15 whole entry): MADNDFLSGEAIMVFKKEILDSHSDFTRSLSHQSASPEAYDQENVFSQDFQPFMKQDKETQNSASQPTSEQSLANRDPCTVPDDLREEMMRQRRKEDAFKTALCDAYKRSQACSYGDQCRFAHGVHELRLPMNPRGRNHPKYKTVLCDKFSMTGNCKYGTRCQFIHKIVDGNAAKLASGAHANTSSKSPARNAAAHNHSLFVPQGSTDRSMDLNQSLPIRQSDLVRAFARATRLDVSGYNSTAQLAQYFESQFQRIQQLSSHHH

[11] = biological target: T6, Zinc finger protein mex-5 (Caenorhabditis elegans, UniProt Q9XUB2); test: MEX-5/TCR-2 RNA interaction inhibitors, dose response, biochemical, C. elegans, fluorescence polarization (AID 1960)
T6 sequence (Q9XUB2 whole entry): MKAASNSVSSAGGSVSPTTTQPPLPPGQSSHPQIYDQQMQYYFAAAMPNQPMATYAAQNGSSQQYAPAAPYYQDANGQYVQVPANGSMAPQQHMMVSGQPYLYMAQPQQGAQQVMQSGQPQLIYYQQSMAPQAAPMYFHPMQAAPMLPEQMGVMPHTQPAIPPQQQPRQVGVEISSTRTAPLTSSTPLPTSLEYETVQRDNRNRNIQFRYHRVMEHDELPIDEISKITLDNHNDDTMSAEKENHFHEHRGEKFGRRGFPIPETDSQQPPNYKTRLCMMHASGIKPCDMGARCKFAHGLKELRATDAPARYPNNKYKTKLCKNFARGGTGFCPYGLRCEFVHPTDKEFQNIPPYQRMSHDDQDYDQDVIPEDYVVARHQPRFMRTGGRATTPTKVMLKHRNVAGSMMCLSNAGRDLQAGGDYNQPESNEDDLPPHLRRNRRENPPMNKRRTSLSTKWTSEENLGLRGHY

Cytochrome P450 2C9 [12] = biological target: T2, Cytochrome P450 2C9; remark: listed apart in the source
[13] = growth suppression of beta-catenin-knockout colon cells, dose response, cell-based, HCT116, human colon tumor (AID 1045); format: functional;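 note: HCT116 colon tumor cells with beta catenin knocked out; cells exposed to compound for 60 hours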
[14] = growth suppression of PTEN-null colon cells, dose response, cell-based, HCT116 PTEN knockout (AID 1047); format: functional;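 note: HCT116 colon tumor cells with PTEN knocked out; cells exposed to compound for 60 hours before readout; potency for loss of cell viability measured by luminescence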

T1 sequence (P08684 whole entry): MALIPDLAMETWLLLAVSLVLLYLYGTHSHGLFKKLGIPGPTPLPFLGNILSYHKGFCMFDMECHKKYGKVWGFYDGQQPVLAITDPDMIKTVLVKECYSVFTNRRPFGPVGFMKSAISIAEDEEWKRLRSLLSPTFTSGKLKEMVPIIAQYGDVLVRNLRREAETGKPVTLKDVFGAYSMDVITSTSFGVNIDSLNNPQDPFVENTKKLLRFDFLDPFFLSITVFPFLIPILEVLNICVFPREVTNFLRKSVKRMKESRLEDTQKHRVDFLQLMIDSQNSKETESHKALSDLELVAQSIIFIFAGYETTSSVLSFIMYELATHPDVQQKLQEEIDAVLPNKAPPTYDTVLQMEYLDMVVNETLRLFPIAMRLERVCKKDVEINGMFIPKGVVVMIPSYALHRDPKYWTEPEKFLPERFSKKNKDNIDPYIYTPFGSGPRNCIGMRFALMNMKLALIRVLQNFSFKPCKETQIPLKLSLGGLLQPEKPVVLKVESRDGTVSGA
T2 sequence (P11712 whole entry): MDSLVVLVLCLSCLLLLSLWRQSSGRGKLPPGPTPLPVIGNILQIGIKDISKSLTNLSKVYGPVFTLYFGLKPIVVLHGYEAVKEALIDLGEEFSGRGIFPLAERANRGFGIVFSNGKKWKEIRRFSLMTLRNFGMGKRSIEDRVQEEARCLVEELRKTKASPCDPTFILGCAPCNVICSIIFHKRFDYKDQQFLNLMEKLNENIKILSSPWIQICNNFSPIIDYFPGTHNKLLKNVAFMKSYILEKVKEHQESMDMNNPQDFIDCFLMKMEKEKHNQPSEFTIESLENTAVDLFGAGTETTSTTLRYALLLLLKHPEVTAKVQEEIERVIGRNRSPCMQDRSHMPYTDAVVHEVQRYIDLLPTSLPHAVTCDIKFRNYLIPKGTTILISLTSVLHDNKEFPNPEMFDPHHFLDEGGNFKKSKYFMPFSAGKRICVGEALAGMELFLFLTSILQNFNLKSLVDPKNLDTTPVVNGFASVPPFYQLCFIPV

C=CC[C@H](N)C(=O)O
AC50 (Cytochrome P450 3A4 [1]): inconclusive

O=C(OCC#CCSc1nnc(-c2cccc3ccccc23)o1)c1ccco1
AC50 (Cytochrome P450 2C9 [2]): inconclusive

Cc1ccc(C(C)C)c(OCc2n[n+](CC(=O)c3ccc(Cl)cc3)c3n2CCCCC3)c1
EC50 [3]: > 60 µM (not active) | AC50 [4]: 3.31 µM (active) | AC50 [5]: 9.83 µM (active) | AC50 (INS1): 3.41 µM (active) | EC50 [6]: 0.304 µM (active)

O=C(NCc1cccs1)C1CCN(S(=O)(=O)c2cccc3nsnc23)CC1
AC50 (Cytochrome P450 2D6): 6.31 µM (inconclusive) | AC50 (Cytochrome P450 2C9 [2]): inconclusive | AC50 (Cytochrome P450 1A2): 0.158 µM (inconclusive)

CC1(C)CC(N2CCC(=O)NC2=S)CC(C)(C)N1
EC50 [7]: > 112 µM (not active) | EC50 [8]: > 112 µM (not active)

Cc1ccccc1-n1c(=O)cc(N2CC(C)OC(C)C2)[nH]c1=O (stereo not given)
AC50 (Cytochrome P450 3A4 [1]): inconclusive

CCC(=O)Nc1cccc(-c2nc3ccccc3c(=O)o2)c1
AC50 (Cytochrome P450 2D6): 31.6 µM (inconclusive) | AC50 (Cytochrome P450 2C9 [2]): inconclusive | AC50 (Cytochrome P450 2C19): 39.8 µM (inconclusive) | AC50 (Cytochrome P450 3A4 [9]): 28.2 µM (inconclusive)

CCN(CC)CCO[C@H]1CC[C@@]2(C)C(=CC[C@@H]3[C@H]2CC[C@]2(C)C(=O)CC[C@H]32)C1
AC50 (Cytochrome P450 3A4 [1]): inconclusive

Cc1ccccc1-c1cc(NCCN2CCOCC2)ncn1
AC50 (Cytochrome P450 3A4 [1]): inconclusive | AC50 (Cytochrome P450 1A2): 31.6 µM (inconclusive)

Cc1ccc(O)c(N=Nc2ccccc2)n1
EC50 [7]: < 0.701 µM (active) | EC50 [8]: 1.2 µM (active)

Cc1cccc(C(=N)NOC(=O)c2ccccc2Cl)c1
EC50 [7]: 3.84 µM (active) | EC50 [8]: 1.96 µM (active)

CCS(=O)(=O)N1CCC[C@H]2CN3CCc4cc(OC)ccc4[C@@H]3C[C@@H]21
AC50 (Cytochrome P450 2C9 [2]): inconclusive | AC50 (Cytochrome P450 1A2): 31.6 µM (inconclusive)

O=C(CCNC(=O)c1ccc(Br)o1)NCc1ccccn1
AC50 (Cytochrome P450 2C9 [2]): inconclusive | AC50 (Cytochrome P450 2C19): 17.8 µM (inconclusive) | AC50 (Cytochrome P450 1A2): 14.1 µM (inconclusive) | AC50 (Cytochrome P450 3A4 [9]): 14.1 µM (inconclusive)

O=C(/C=C/c1ccc([N+](=O)[O-])s1)N1CCCC1
EC50 [3]: > 60 µM (not active) | EC50 [10]: > 300 µM (not active) | EC50 [11]: > 300 µM (not active) | AC50 [5]: 9.86 µM (active) | EC50 [6]: 1.03 µM (active)

CSc1nc2ccccc2cc1/C=C(\C#N)c1ccccc1
AC50 (Cytochrome P450 3A4 [1]): inconclusive

S=c1nc(-c2ccccc2)oc2c1CCCC2
AC50 (Cytochrome P450 2C9 [2]): inconclusive

C[C@@]12CC[C@@H]3[C@@H](CC[C@H]4C[C@@H](O)CC[C@]43C)[C@H]1CC[C@@H]2c1cc(C(F)(F)F)[nH]n1
AC50 (Cytochrome P450 2C9 [12]): 7.94 µM (inconclusive) | AC50 (Cytochrome P450 3A4 [1]): inconclusive

CCCCCCN1C=CC(=C2C(=O)c3ccccc3C2=O)C=C1
AC50 [5]: 3.86 µM (active)

Cn1c(=O)c2cc(S(=O)(=O)NCCC(=O)NCCc3ccc(Cl)cc3)ccc2n(C)c1=O
AC50 (Cytochrome P450 2C9 [2]): inconclusive | AC50 (Cytochrome P450 1A2): 0.0398 µM (inconclusive)

Cc1noc(C)c1-c1nccc(-n2ccnc2)n1
AC50 (Cytochrome P450 2D6): 20 µM (inconclusive) | AC50 (Cytochrome P450 2C9 [2]): inconclusive

Cc1cccc(NC(=O)CCCN2C(=O)c3cccc4cccc(c34)C2=O)c1
AC50 (Cytochrome P450 2D6): 25.1 µM (inconclusive) | AC50 (Cytochrome P450 2C9 [2]): inconclusive

O=C(N/N=C/c1ccc(F)cc1)c1c(O)nc2ccccc2c1O
AC50 [5]: 9.64 µM (active)

CO/N=C/c1ccc(N2CCN(C(=O)c3ccc(Cl)cc3Cl)CC2)c([N+](=O)[O-])c1
AC50 (Cytochrome P450 3A4 [1]): inconclusive | EC50 [13]: 22.3 µM (active) | EC50 [14]: 20.3 µM (active)

Oc1cccc(/C=N/Nc2nn3cnnc3c3ccccc23)c1
EC50 [7]: 18.8 µM (active) | EC50 [8]: 5.06 µM (active)

O=C(NC1CCN(Cc2ccccc2)CC1)c1ccc(I)cc1
AC50 (Cytochrome P450 2C9 [12]): 39.8 µM (inconclusive) | AC50 (Cytochrome P450 3A4 [1]): inconclusive | AC50 (Cytochrome P450 1A2): 39.8 µM (inconclusive)
